Patent US20080200376A1, “Compositions and Methods For the Treatment Of Obesity and Sexual Dysfunction” (priority 2004, published 2008)
Marks after values point to notes of the source that are not given here.

Assays:
ferrets [1] = assay: MC4R associated emesis in ferrets, Compound A and Compound B (Table 1); format: in vivo, ferret; conditions: Compound A 60 mg/kg orally; for % Emesis: ferrets; for # of Ferrets: ferrets with emesis/dosed
Protocol: (§1) Food intake (FI) was monitored at 1, 2, 4, and 24, hours after dosing. Body weight (BWT) was measured at the time of dosing and at 24 hours. Any incidence of emesis or abnormal behavior by subjects was recorded. Two studies were combined to generate the data.

hMC2R = molecular target: T1, hMC2R (Homo sapiens, UniProt Q01718); assay: cAMP functional assay (agonist); format: cell-based
T1 construct: expressed in transfected cells; host or cells: CHO-, L- or other eukaryotic cells
Protocol: (§2) Cells (for example, CHO— or L-cells or other eukaryotic cells) expressing a human melanocortin receptor (see e.g. Yang-YK; Ollmann-MM; Wilson-BD; Dickinson-C; Yamada-T; Barsh-GS; Gantz-I; Mol-Endocrinol. 1997 March; 11(3): 274-80) were dissociated from tissue culture flasks by rinsing with Ca and Mg free phosphate buffered saline (14190-136, Life Technologies, Gaithersburg, Md.) and detached following 5 min incubation at 37° C. with enzyme free dissociation buffer (S-014-B, Specialty Media, Lavellette, N.J.). Cells were collected by centrifugation and resuspended in Earle's Balanced Salt Solution (14015-069, Life Technologies, Gaithersburg, Md.) with additions of 10 mM HEPES pH 7.5, 5 mM MgCl2, 1 mM glutamine and 1 mg/ml bovine serum albumin. Cells were counted and diluted to 1 to 5×10^6/mL. The phosphodiesterase inhibitor 3-isobutyl-1-methylxanthine was added to cells to 0.6 mM.
(§3) Agonist Assay: Test compounds were diluted in dimethylsulfoxide (DMSO) (10^−5 to 10^−10 M) and 0.1 volume of compound solution was added to 0.9 volumes of cell suspension; the final DMSO concentration was […]. After room temperature incubation for 45 min, cells were lysed by incubation at 100° C. for 5 min to release accumulated cAMP.
(§4) cAMP was measured in an aliquot of the cell lysate with the Amersham (Arlington Heights, Ill.)
(§5) cAMP detection assay (RPA556). The amount of cAMP production which resulted from an unknown compound was compared to that amount of cAMP produced in response to alpha-MSH which was defined as a 100% agonist. The EC50 is defined as the compound concentration which results in half maximal stimulation, when compared to its own maximal level of stimulation.

hMC4R [2] = molecular target: T2, hMC4R (Homo sapiens, UniProt P32245); assay: cAMP functional assay (agonist); format: cell-based
T2 construct: expressed in transfected cells; host or cells: CHO-, L- or other eukaryotic cells
Protocol: as §2, §3, §4, §5

hMC1bR [3] = molecular target: T3, hMC1bR (Homo sapiens, UniProt Q01726); assay: cAMP functional assay (agonist); format: cell-based
Protocol: as §2, §3, §4, §5

hMC3R [4] = molecular target: T4, hMC3R (Homo sapiens, UniProt P41968); assay: cAMP functional assay (agonist); format: cell-based
T4 construct: expressed in transfected cells; host or cells: CHO-, L- or other eukaryotic cells
Protocol: as §2, §3, §4

hMC5R [5] = molecular target: T5, hMC5R (Homo sapiens, UniProt P33032); assay: cAMP functional assay (agonist); format: cell-based
T5 construct: expressed in transfected cells; host or cells: CHO-, L- or other eukaryotic cells
Protocol: as §2, §3, §4

ferrets [6] = assay: MC4R associated emesis in ferrets, Compound A and Compound F (Table 2); format: in vivo, ferret; conditions: Compound A (10 mg/kg); for % Emesis: ferrets; for # of Ferrets: ferrets with emesis/dosed
Protocol: FIG. 3. […] All food intake data were analyzed by two-tailed T-TEST.
as §1

hMC3R [7] = molecular target: T4, hMC3R; assay: Melanocortin receptor membrane binding assay (125I-NDP-alpha-MSH)
Protocol: The cells were grown at 37° C. with CO2 and humidity control until the desired cell density and cell number was obtained.

hMC5R [8] = molecular target: T5, hMC5R; assay: as above
Protocol: (§6) The membrane binding assay was used to identify competitive inhibitors of ^125I-NDP-alpha-MSH binding to cloned human MCRs expressed in mouse L- or Chinese hamster ovary (CHO)-cells.
(§7) Cell lines expressing melanocortin receptors were grown in T-180 flasks containing selective medium of the composition: 1 L Dulbecco's modified Eagles Medium (DMEM) with 4.5 g […], 25 mM Hepes, without sodium pyruvate, (Gibco/BR1); 100 ml 10% heat-inactivated fetal bovine serum (Sigma); 10 mL 10,000 unit/mL penicillin & 10,000 μg/mL streptomycin (Gibco/BR1); 10 ml 200 mM L-glutamine (Gibco/BR1); 1 mg/mL geneticin (G418) (Gibco/BR1). The cells were grown at 37° C. with CO2 and humidity control until the desired cell density and cell number was obtained.
(§8) The medium was poured off and 10 mls/T-180 flask of enzyme-free dissociation media (Specialty Media Inc.) was added. The cells were incubated at 37° C. for 10 min or until cells sloughed off when flask was banged against hand.
(§9) The cells were harvested into 200 mL centrifuge tubes and spun at 1000 rpm, 4° C., for 10 min. The supernatant was discarded and the cells were resuspended in 5 mls/monolayer membrane preparation buffer having the composition: 10 mM Tris pH 7.2-7.4; 4 μg/mL Leupeptin (Sigma); 10 μM Phosphoramidon (Boehringer Mannheim); 40 μg/mL Bacitracin (Sigma); 5 μg/mL Aprotinin (Sigma); 10 mM Pefabloc (Boehringer Mannheim). The cells were homogenized with motor-driven dounce (Talboy setting 40), using 10 strokes and the homogenate centrifuged at 6,000 rpm, 4° C., for 15 min.
(§10) The pellets were resuspended in 0.2 mls/monolayer membrane prep buffer and aliquots were placed in tubes ([…]) and quick frozen in liquid nitrogen and then stored at −80° C.
(§11) Test compounds or unlabelled NDP-α-MSH was added to 100 μL of membrane binding buffer to a final concentration of 1 μM. The membrane binding buffer had the composition: 50 mM Tris pH 7.2; 2 mM CaCl2; 1 mM MgCl2; 5 mM KCl; 0.2% BSA; 4 μg/mL Leupeptin (SIGMA); 10 μM Phosphoramidon (Boehringer Mannheim); 40 μg/mL Bacitracin (SIGMA); 5 μg/mL Aprotinin (SIGMA); and 10 mM Pefabloc (Boehringer Mannheim). One hundred μL of membrane binding buffer containing 10-40 μg membrane protein was added, followed by […]. The resulting mixture was vortexed briefly and incubated for 90-120 min at room temp while shaking.
(§12) The mixture was filtered with Packard Microplate 196 filter apparatus using Packard Unifilter 96-well GF/C filter with 0.1% polyethyleneimine (Sigma). The filter was washed (5 times with a total of 10 mL per well) with room temperature of filter wash having the composition: 50 mM Tris-HCl pH 7.2 and 20 mM NaCl. […] The top was sealed and the radioactivity quantitated in a Packard Topcount Microplate Scintillation counter.

hMC4R [9] = molecular target: T2, hMC4R; assay: as above
Protocol: as §6, §7, §8, §9, §10, §11, §12

hMC1bR [10] = molecular target: T3, hMC1bR; assay: as above
Protocol: as §6, §7, §8, §9, §10, §11, §12

T3 sequence (Q01726 whole entry): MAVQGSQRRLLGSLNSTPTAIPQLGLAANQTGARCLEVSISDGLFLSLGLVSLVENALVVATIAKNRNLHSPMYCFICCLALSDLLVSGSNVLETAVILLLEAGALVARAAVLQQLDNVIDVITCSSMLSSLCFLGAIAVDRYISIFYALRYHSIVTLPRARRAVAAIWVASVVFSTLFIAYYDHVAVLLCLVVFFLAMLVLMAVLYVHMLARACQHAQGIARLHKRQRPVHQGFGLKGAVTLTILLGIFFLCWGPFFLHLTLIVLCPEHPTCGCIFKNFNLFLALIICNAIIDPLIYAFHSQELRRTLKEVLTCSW
T4 sequence (P41968 whole entry): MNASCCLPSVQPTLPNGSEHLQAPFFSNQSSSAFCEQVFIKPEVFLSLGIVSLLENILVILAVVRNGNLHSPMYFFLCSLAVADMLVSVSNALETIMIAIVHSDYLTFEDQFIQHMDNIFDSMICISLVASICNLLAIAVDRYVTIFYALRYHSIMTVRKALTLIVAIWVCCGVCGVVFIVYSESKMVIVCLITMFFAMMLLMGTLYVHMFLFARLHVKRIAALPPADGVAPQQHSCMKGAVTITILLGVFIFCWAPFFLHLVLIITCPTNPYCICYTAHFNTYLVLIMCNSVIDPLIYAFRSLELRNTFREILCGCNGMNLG
T5 sequence (P33032 whole entry): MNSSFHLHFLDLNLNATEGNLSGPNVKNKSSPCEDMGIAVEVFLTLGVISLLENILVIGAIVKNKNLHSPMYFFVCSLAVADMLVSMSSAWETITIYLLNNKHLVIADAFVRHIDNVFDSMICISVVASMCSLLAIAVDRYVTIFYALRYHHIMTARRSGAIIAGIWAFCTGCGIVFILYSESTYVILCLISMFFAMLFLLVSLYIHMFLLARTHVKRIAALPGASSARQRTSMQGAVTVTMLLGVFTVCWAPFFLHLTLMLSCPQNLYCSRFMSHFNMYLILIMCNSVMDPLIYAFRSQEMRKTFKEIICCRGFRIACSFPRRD
T2 sequence (P32245 whole entry): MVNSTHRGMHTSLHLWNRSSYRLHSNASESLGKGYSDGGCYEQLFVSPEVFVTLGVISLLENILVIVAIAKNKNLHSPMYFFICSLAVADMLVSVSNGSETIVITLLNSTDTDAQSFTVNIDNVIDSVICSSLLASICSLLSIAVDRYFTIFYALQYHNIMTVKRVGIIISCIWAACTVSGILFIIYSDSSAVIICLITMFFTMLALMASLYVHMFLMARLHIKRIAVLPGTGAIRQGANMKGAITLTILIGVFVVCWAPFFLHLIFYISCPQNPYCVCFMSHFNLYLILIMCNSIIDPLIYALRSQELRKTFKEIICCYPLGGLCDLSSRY
T1 sequence (Q01718 whole entry): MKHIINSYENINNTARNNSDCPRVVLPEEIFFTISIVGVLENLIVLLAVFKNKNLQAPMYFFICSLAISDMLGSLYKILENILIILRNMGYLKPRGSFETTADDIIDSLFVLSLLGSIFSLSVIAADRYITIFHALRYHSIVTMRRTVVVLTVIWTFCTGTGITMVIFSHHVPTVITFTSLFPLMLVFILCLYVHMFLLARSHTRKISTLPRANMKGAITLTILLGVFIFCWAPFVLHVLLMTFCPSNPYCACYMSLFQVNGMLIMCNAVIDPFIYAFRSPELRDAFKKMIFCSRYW
T1 sequence (Q8TCY5 whole entry partner): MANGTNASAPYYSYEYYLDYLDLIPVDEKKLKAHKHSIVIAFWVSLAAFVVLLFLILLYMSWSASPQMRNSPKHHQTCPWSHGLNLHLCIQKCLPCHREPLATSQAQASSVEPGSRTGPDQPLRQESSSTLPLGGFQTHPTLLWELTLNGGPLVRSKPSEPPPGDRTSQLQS

Question: What does the source list for `CC[C@H](NC(C)=O)c1cc(Cl)ccc1C1CCN(C(=O)[C@@H]2CN(C(C)(C)C)C[C@H]2c2ccc(F)cc2F)CC1` [Compound A]?
Answer: % Emesis (ferrets [1]; 1 hour): 31%; % Emesis (ferrets [1]; 2 hours): 8%; % Emesis (ferrets [1]; 4 hours): 69%; % Emesis (ferrets [1]; Total, 60 mg/kg): 77%; # of Ferrets (ferrets [1]; 1 hour): 4/13; # of Ferrets (ferrets [1]; 2 hours): 1/13; # of Ferrets (ferrets [1]; 4 hours): 9/13******; # of Ferrets (ferrets [1]; Total): 10/13****; EC50 (hMC2R): > 10 µM; EC50 (hMC4R [2]): 14 nM; EC50 (hMC1bR [3]): 1700 nM; Selectivity cAMP EC50 1R/4R (hMC1bR [3]; EC50 hMC1bR / EC50 hMC4R): 121.43; EC50 (hMC3R [4]): 920 nM; EC50 (hMC5R [5]): 1400 nM; % Emesis (ferrets [6]; 1 hour): 40%; % Emesis (ferrets [6]; 2 hours): 40%; % Emesis (ferrets [6]; 4 hours): 60%; % Emesis (ferrets [6]; total): 100%; # of Ferrets (ferrets [6]; 1 hour): 2/5**; # of Ferrets (ferrets [6]; 2 hours): 2/5; # of Ferrets (ferrets [6]; 4 hours): 5/5***; # of Ferrets (ferrets [6]; total): 5/5*****; IC50 (hMC3R [7]): 7.2 µM; IC50 (hMC5R [8]): 1600 nM; IC50 (hMC4R [9]): 44 nM; IC50 (hMC1bR [10]): 5.6 µM; Selectivity Binding IC50 1R/4R (hMC1bR [10]; IC50 hMC1bR / IC50 hMC4R): 127.27
